Measurements published in patent US20200407712A1, “ARRAY-BASED CYCLIC PEPTIDE LIBRARIES” (HealthTell Inc., priority 2018, published 2020).

Columns and labels:
[1] = intramolecular disulfide formation by ambient air oxidation of bis-Cys peptides on SiO2 array surface after side-chain deprotection (TFA/TMS-OTf) and NH3-gas DKP detachment; fraction oxidized from MALDI relative peak intensities; conditions: the molecule shown is the open-chain precursor, none (dry film on SiO2, ambient air), other, 18.0 h, scale: fraction oxidized
[2] = system: Non-Immunoglobulin Serum Components (NISC); assay: NISC counter screen on linear and lactam constrained peptide microarrays; assay type: binding, human; conditions: 0.001 mg/mL NISC applied to the array; for NISC Lactam, log 10 transformed median intensity: lactam constrained library peptide; for NISC Linear, log 10 transformed median intensity: linear library peptide
Source text: (§1) Diaphorase is NAD(P)H dehydrogenase (UniProtKB: P15559) encoded by the NQO1 gene. Diaphorase has utility as a model enzyme; for which peptide based synthetic affinity agents to diaphorase are required. A 3.3 million feature peptide array was used to identify potential binding partner peptides for diaphorase. Ferredoxin NADP+ Reductase (FNR) and Ferredoxin are included as counter screens for a specific application, while immunoglobulin depleted human serum (Non-Immunoglobulin Serum Components or NISC) was used as a complex mixture to control for generally sticky peptides.
(§2) Peptide arrays were prepared for protein binding by pretreating the arrays in PBST for 30 min at […]. Direct labeled diaphorase (Alexa Fluor™ 555), direct labeled FNR (Alexa Fluor™ 555) and biotinylated ferredoxin were applied to the arrays at 1.0 and 10.0 nM along with direct labeled NISC at 0.001 mg/mL for 1 hr at 37° C. Arrays were washed 3× with PBST and Streptavidin-Alexa Fluor™ 555 was applied to the biotinylated ferredoxin and streptavidin alone arrays. All other arrays received PBST and were incubated for 1 hr at 37° C. Arrays were washed with PBST and p53Ab1-Alexa Fluor™ 647 applied to all arrays to illuminate the edge fiducials for 10 min at 37° C. Following the final incubation arrays were washed in PBST and water, dried and imaged on the ImageXpress ([…]). Triplicate arrays were used for the subsequent analysis except for when rejection of an array was necessary due to the presence of artifacts. Data were analyzed using a custom R script.
Peptides were also selected based on the difference in log 10 transformed intensities between diaphorase and NISC as the counter screen agent (LFGdiaphorase minus LFGNISC). Intensities for 10.0 nM diaphorase and 0.001 mg/mL NISC are shown in FIG. 29A where intensities plotted are the log 10 transformed median intensity from replicate arrays. Coloring of the points represents the density of features at that intensity using a grey colorscale. Light grey represents areas of low peptide numbers while black represents the intensity having the highest number of peptides. The diagonal line is equivalence line. Selectivity vs NISC was not dependent on cyclization as diaphorase also bound the linear forms for some peptides (Table 4). Three peptides having the highest degree of cyclization in the quality control assay were identified and binding intensities compared to other library peptides having one or two amino acid substitutions (FIG. 30) Each CLUSTAL alignment contains the library peptides having a maximum of two substitutions to the parent peptide. Dark grey highlights indicate a residue conserved in more than 60% of the peptides. Light grey highlights indicate chemically similar amino acids to the conserved residue. The amino acid usage is indicated in the sequence logo above the alignment. Substitutional analysis provides confidence in the array data by indicating which residues are important for binding.

[3] = system: Ferredoxin NADP+ Reductase (FNR); assay: FNR counter screen on linear and lactam constrained peptide microarrays; assay type: binding; conditions: 10.0 nM protein applied to the array; for FNR Lactam, log 10 transformed median intensity: lactam constrained library peptide; for FNR Linear, log 10 transformed median intensity: linear library peptide
Source text: as §1, §2

human diaphorase (NQO1) = target: T1, human diaphorase (NQO1) (Homo sapiens, UniProt P15559); assay: Alexa Fluor 555-diaphorase binding to linear and lactam constrained peptide microarrays; conditions: 10.0 nM protein applied to the array; for Diaphorase Lactam, log 10 transformed median intensity: lactam constrained library peptide; for Diaphorase Linear, log 10 transformed median intensity: linear library peptide
T1 construct: purchased SigmaAldrich
Source text: as §1
Two wafers from the same synthesis batch were obtained where one wafer was prepared with the lactam chemistry and constrained into a cyclized form. The degree of cyclization was confirmed using the biotinylation assay described in Examples 9, 17, and 19.
as §2
Intensities plotted are the log 10 transformed median intensity from replicate arrays. Coloring of the points represents the density of features at that intensity using a gray-scale map. Light grey represents areas of low peptide numbers while black represents the intensity having the highest number of peptides. The diagonal line is equivalence line. […] CLUSTAL sequence alignment (FIG. 27B) of the sequences indicated similarities in amino acid composition. Highlighted amino acids are conserved in over 60% of the peptides for that position or are a chemically similar amino acid (ie: F and Y).
The sequences contain similar amino acid usage. Four peptides having the highest degree of cyclization in the quality control assay were identified and binding intensities compared to other library peptides having one or two amino acid substitutions as shown in FIG. 28. Substitutional analysis provides confidence in the array data by indicating which residues are important for binding. Dark grey boxes highlight indicate a residue conserved in more than 60% of the peptides. Light grey boxes highlight indicate chemically similar amino acids to the conserved residue. RFI is the intensity is the median replicate log 10 intensity for the 10.0 nM Diaphorase.

Streptavidin = Streptavidin (Streptomyces avidinii, UniProt P22629); assay: Streptavidin-Alexa Fluor 555 alone on linear and lactam constrained peptide microarrays; assay type: binding; conditions: for Streptavidin Lactam, log 10 transformed median intensity: lactam constrained library peptide; for Streptavidin Linear, log 10 transformed median intensity: linear library peptide
Experimental: as §2

Ferredoxin = assay: Biotinylated ferredoxin counter screen on linear and lactam constrained peptide microarrays; assay type: binding; conditions: 10.0 nM biotinylated protein, detected with Streptavidin-Alexa Fluor 555; for Ferredoxin Lactam, log 10 transformed median intensity: lactam constrained library peptide; for Ferredoxin Linear, log 10 transformed median intensity: linear library peptide
Source text: as §1, §2

T1 sequence (P15559 whole entry): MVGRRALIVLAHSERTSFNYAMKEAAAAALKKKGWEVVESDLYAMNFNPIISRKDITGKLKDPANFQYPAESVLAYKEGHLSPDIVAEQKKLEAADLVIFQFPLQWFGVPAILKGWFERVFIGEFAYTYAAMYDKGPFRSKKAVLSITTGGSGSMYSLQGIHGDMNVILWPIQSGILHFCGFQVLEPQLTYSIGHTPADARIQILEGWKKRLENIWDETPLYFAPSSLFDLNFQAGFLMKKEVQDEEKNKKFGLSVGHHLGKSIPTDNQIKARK
Streptavidin, sequence (P22629 25-183, species assumed): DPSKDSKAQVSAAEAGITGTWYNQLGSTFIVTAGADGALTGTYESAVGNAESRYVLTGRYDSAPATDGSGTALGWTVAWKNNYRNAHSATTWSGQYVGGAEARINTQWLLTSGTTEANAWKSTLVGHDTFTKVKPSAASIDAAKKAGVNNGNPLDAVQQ

Row | Compound | ring closure, fraction oxidized by MALDI ([1]; 14-membered ring) | ring closure, fraction oxidized by MALDI ([1]; 8-membered ring) | ring closure, fraction oxidized by MALDI ([1]; 20-membered ring) | NISC Lactam, log 10 transformed median intensity [2] | NISC Linear, log 10 transformed median intensity [2] | FNR Lactam, log 10 transformed median intensity [3] | FNR Linear, log 10 transformed median intensity [3] | Diaphorase Lactam, log 10 transformed median intensity (human diaphorase (NQO1)) | Diaphorase Linear, log 10 transformed median intensity (human diaphorase (NQO1)) | Streptavidin Lactam, log 10 transformed median intensity (Streptavidin) | Streptavidin Linear, log 10 transformed median intensity (Streptavidin) | Ferredoxin Lactam, log 10 transformed median intensity (Ferredoxin) | Ferredoxin Linear, log 10 transformed median intensity (Ferredoxin)
1 | COc1cc(OC)c([P+](CC(=O)N[C@@H](CCCCN)C(=O)N[C@@H](CS)C(=O)N2CCC[C@H]2C(=O)NCC(=O)N[C@@H](CS)C(=O)N[C@@H](CC(C)C)C(=O)NCCCC[C@@H]2NC(=O)[C@@H]3CCCN3C2=O)(c2c(OC)cc(OC)cc2OC)c2c(OC)cc(OC)cc2OC)c(OC)c1 | 0.73 |  |  |  |  |  |  |  |  |  |  |  | 
2 | COc1cc(OC)c([P+](CC(=O)N[C@@H](CCCCN)C(=O)N[C@@H](CS)C(=O)N[C@@H](CS)C(=O)N[C@@H](CC(C)C)C(=O)NCCCC[C@@H]2NC(=O)[C@@H]3CCCN3C2=O)(c2c(OC)cc(OC)cc2OC)c2c(OC)cc(OC)cc2OC)c(OC)c1 |  | 0.78 |  |  |  |  |  |  |  |  |  |  | 
3 | COc1cc(OC)c([P+](CC(=O)N[C@@H](CS)C(=O)N2CCC[C@H]2C(=O)NCC(=O)N[C@@H](CS)C(=O)NCCCC[C@@H]2NC(=O)[C@@H]3CCCN3C2=O)(c2c(OC)cc(OC)cc2OC)c2c(OC)cc(OC)cc2OC)c(OC)c1 | 0.77 |  |  |  |  |  |  |  |  |  |  |  | 
4 | COc1cc(OC)c([P+](CC(=O)N[C@@H](CS)C(=O)N[C@@H](CCC(N)=O)C(=O)N2CCC[C@H]2C(=O)NCC(=O)N[C@@H](Cc2ccc(O)cc2)C(=O)N[C@@H](CS)C(=O)NCCCC[C@@H]2NC(=O)[C@@H]3CCCN3C2=O)(c2c(OC)cc(OC)cc2OC)c2c(OC)cc(OC)cc2OC)c(OC)c1 |  |  | 0.75 |  |  |  |  |  |  |  |  |  | 
5 | COc1cc(OC)c([P+](CC(=O)N[C@@H](CS)C(=O)N[C@@H](CCC(N)=O)C(=O)N[C@@H](Cc2ccc(O)cc2)C(=O)N[C@@H](CS)C(=O)NCCCC[C@@H]2NC(=O)[C@@H]3CCCN3C2=O)(c2c(OC)cc(OC)cc2OC)c2c(OC)cc(OC)cc2OC)c(OC)c1 | 0.72 |  |  |  |  |  |  |  |  |  |  |  | 
6 | COc1cc(OC)c([P+](CC(=O)N[C@@H](CS)C(=O)N[C@H](C(=O)N[C@@H](Cc2c[nH]cn2)C(=O)N[C@@H](CS)C(=O)NCCCC[C@@H]2NC(=O)[C@@H]3CCCN3C2=O)[C@@H](C)O)(c2c(OC)cc(OC)cc2OC)c2c(OC)cc(OC)cc2OC)c(OC)c1 | 0.78 |  |  |  |  |  |  |  |  |  |  |  | 
7 | COc1cc(OC)c([P+](CC(=O)N[C@@H](Cc2ccc(O)cc2)C(=O)N[C@@H](CS)C(=O)N2CCC[C@H]2C(=O)NCC(=O)N[C@@H](CS)C(=O)N[C@@H](CO)C(=O)NCCCC[C@@H]2NC(=O)[C@@H]3CCCN3C2=O)(c2c(OC)cc(OC)cc2OC)c2c(OC)cc(OC)cc2OC)c(OC)c1 | 0.76 |  |  |  |  |  |  |  |  |  |  |  | 
8 | COc1cc(OC)c([P+](CC(=O)N[C@@H](Cc2ccc(O)cc2)C(=O)N[C@@H](CS)C(=O)N[C@@H](CS)C(=O)N[C@@H](CO)C(=O)NCCCC[C@@H]2NC(=O)[C@@H]3CCCN3C2=O)(c2c(OC)cc(OC)cc2OC)c2c(OC)cc(OC)cc2OC)c(OC)c1 |  | 0.7 |  |  |  |  |  |  |  |  |  |  | 
9 | TSFFPGYN [library array peptide, tested lactam constrained and linear] |  |  |  | 3.47 | 2.60 | 2.62 | 2.54 | 4.51 | 2.86 | 2.52 | 2.53 | 2.71 | 2.54
10 | TTFFQPSY [library array peptide, tested lactam constrained and linear] |  |  |  | 3.35 | 2.59 | 2.55 | 2.54 | 4.46 | 2.77 | 2.52 | 2.54 | 2.78 | 2.54
11 | TTFSFSTP [library array peptide, tested lactam constrained and linear] |  |  |  | 3.33 | 2.62 | 2.62 | 2.57 | 4.47 | 2.78 | 2.55 | 2.54 | 2.69 | 2.58
12 | TTLFQTPY [library array peptide, tested lactam constrained and linear] |  |  |  | 3.28 | 2.69 | 2.63 | 2.54 | 4.45 | 2.80 | 2.53 | 2.52 | 2.66 | 2.54
13 | TYPGVYPS [library array peptide, tested lactam constrained and linear] |  |  |  | 3.16 | 2.58 | 2.59 | 2.54 | 4.40 | 2.75 | 2.53 | 2.51 | 2.69 | 2.54
14 | TYPIYGPA [library array peptide, tested lactam constrained and linear] |  |  |  | 3.43 | 2.59 | 2.59 | 2.53 | 4.46 | 2.77 | 2.54 | 2.52 | 2.80 | 2.55
15 | VPSSYNLN [library array peptide, tested lactam constrained and linear] |  |  |  | 2.68 | 2.65 | 2.58 | 2.57 | 4.38 | 3.82 | 2.57 | 2.57 | 2.6 | 2.58
